The results in this text go back to patent US20090163528A1, “Pharmaceutical composition having analgesic effects” (priority 2004, published 2009).

Series [1] has as its system Kunming breed mice. It is filed as in vivo.
The subject of series [2] is mice. It is filed as in vivo. As to conditions: Table 5. An excerpt: The division of animal groups, content of test drugs, dose and administration is the same as those in the body twisting test, while the contra positive is pethidine hydrochloride only.
In the course of the test, the mice show up reactions of hindleg sucking, hindleg kicking, skipping, etc; take the reaction of hindleg sucking as the pain indicator.

Series [3] deals with Kunming breed mice. As to the kind of experiment: Body twisting test, mixtures of fuziline and benzoylmesaconitine in different proportions (Test 7). It is filed as in vivo. Conditions: benzoylmesaconitine 100 mg/kg stomach perfusion.
Series [4] has as its system mice. Nature of the series: Toxicity test of the active medical ingredients (previous acute toxicology). Conditions: mouse, in vivo.
For series [5], the system named is Kunming breed mice. Nature of the series: Body twisting test, mixtures of fuziline and hypaconitine in different proportions (Test 6). It is filed as in vivo. Conditions: hypaconitine 1 mg/kg stomach perfusion.
Series [6] in a line: Toxicity test of the active medical ingredients (previous acute toxicology). As to conditions: mouse, in vivo.
Series [7] deals with Kunming breed mice. It is filed as in vivo. As to conditions: mesaconitine 0.5 mg/kg stomach perfusion.
[8] abbreviates: Table 3, 50 mg/kg stomach perfusion.
Where [9] appears, read: Table 3, 100 mg/kg stomach perfusion.
The mark [10] stands for this setting: Table 3, 200 mg/kg stomach perfusion.
[11] abbreviates: Table 3, 400 mg/kg stomach perfusion.
Setting [12] is: Table 3, 0.5 mg/kg stomach perfusion.
[13] abbreviates: Table 3, 1 mg/kg stomach perfusion.
Setting [14] is: Table 3, 2 mg/kg stomach perfusion.
[15] abbreviates: Table 3, 4 mg/kg stomach perfusion.
Where [16] appears, read: Table 3, 0.25 mg/kg stomach perfusion.

Counter-ions that a name gives are not always drawn. Like-named read-outs stand apart in the source and are kept apart here.

For the compound `COC[C@]12CN(C)[C@H]3C4C(OC)C1C3(C(OC)CC2O)C1C[C@@]2(O)C(OC(=O)c3ccccc3)C1[C@]4(O)[C@@H](O)C2OC` (stereo partly shown) [Benzoylmesaconitine, benzoylmesaconitine], the “Body twisting number ( χ ± SD)” value was determined as 27.2 ± 12.2 in the series with Kunming breed mice [1] (setting [8]), 27.4 ± 15.9 with Kunming breed mice [1] (setting [9]), 21.0 ± 15.1 in the series with Kunming breed mice [1] (setting [10]) and 20.4 ± 12.9 in the series with Kunming breed mice [1] (setting [11]). Moreover, the Pain suppression rate in the series on Kunming breed mice [1] (setting [8]) is reported as 20.70%; with Kunming breed mice [1] (setting [9]), 20.12%; with Kunming breed mice [1] (setting [10]) it was 38.78%; in the series on Kunming breed mice [1] (setting [11]) it was 40.52%; in the series on Kunming breed mice [3] it was 34.6%. The “Increasing rate of threshold pain after administration ( X ± SD)” value (“Increasing rate … ( X ± SD)” for short) with mice [2] (200 mg/kg stomach perfusion, 15 minutes) worked out at 22.1 ± 52.0%; in the series on mice [2] (200 mg/kg stomach perfusion, 30 minutes), 32.9 ± 45.1 %; in the series on mice [2] (200 mg/kg stomach perfusion, 60 minutes) it was 40.3 ± 76.4%; in the series on mice [2] (200 mg/kg stomach perfusion, 90 minutes), 46.0 ± 87.4%; in the series with mice [2] (200 mg/kg stomach perfusion, 120 minutes) it was 53.6 ± 93.9%; in the series with mice [2] (400 mg/kg stomach perfusion, 15 minutes), 41.3 ± 90.2%. In addition, the “Increasing rate … ( X ± SD)” value in the series on mice [2] (400 mg/kg stomach perfusion, 30 minutes) was 35.2 ± 57.2 %; in the series on mice [2] (400 mg/kg stomach perfusion, 60 minutes), 78.8 ± 104.0 %; in the series with mice [2] (400 mg/kg stomach perfusion, 90 minutes) it was 59.5 ± 88.5%; in the series on mice [2] (400 mg/kg stomach perfusion, 120 minutes), 53.7 ± 117.0%; in the series on mice [2] (benzoylmesaconitine 100 mg/kg stomach perfusion, 15 minutes), −0.4 ± 33.8%; in the series on mice [2] (benzoylmesaconitine 100 mg/kg stomach perfusion, 30 minutes) it was 13.7 ± 52.3%. The “Increasing rate … ( X ± SD)” value was found to be 64.6 ± 76.7 % in the series on mice [2] (benzoylmesaconitine 100 mg/kg stomach perfusion, 60 minutes); 71.1 ± 104.5% with mice [2] (benzoylmesaconitine 100 mg/kg stomach perfusion, 90 minutes); 106.2 ± 116.5% with mice [2] (benzoylmesaconitine 100 mg/kg stomach perfusion, 120 minutes). The compound further yielded a maximum tolerance dose in the series on mice [4] of 1000 mg/kg.

The LD50 is the dose expected to kill half of the subjects tested. For the compound `COC[C@@]12CCC(OC)C34C5C[C@@]6(O)C(OC(=O)c7ccccc7)C5[C@@](OC(C)=O)(C(C(OC)C31)[C@@H]4N(C)C2)[C@@H](O)C6OC` (stereo partly shown) [Hypaconitine, hypaconitine], the “Body twisting number ( χ ± SD)” value in the series on Kunming breed mice [1] (setting [12]) was found to be 27.6 ± 11.5; in the series with Kunming breed mice [1] (setting [13]), 24.5 ± 9.8; in the series on Kunming breed mice [1] (setting [14]) it was 23.6 ± 10.9; in the series on Kunming breed mice [1] (setting [15]) it was 2.8 ± 4.5. Also, the Pain suppression rate in the series with Kunming breed mice [1] (setting [12]) came out at 29.77%; with Kunming breed mice [1] (setting [13]) it was 37.66%; in the series on Kunming breed mice [1] (setting [14]), 39.95%; with Kunming breed mice [1] (setting [15]), 92.88%; in the series on Kunming breed mice [5], 48.0%. Moreover, the “Increasing rate … ( X ± SD)” value is listed as −16.6 ± 31.9% in the series on mice [2] (1 mg/kg stomach perfusion, 15 minutes); −31.9 ± 24.2% in the series on mice [2] (1 mg/kg stomach perfusion, 30 minutes); −18.1 ± 34.5% with mice [2] (1 mg/kg stomach perfusion, 60 minutes); −13.0 ± 14.9% in the series on mice [2] (1 mg/kg stomach perfusion, 90 minutes); 28.3 ± 56.3% with mice [2] (1 mg/kg stomach perfusion, 120 minutes); 72.4 ± 57.6 % in the series on mice [2] (2 mg/kg stomach perfusion, 15 minutes). Further, the “Increasing rate … ( X ± SD)” value in the series with mice [2] (2 mg/kg stomach perfusion, 30 minutes) is reported as 36.0 ± 53.4%; in the series with mice [2] (2 mg/kg stomach perfusion, 60 minutes), 17.3 ± 56.1%; in the series on mice [2] (2 mg/kg stomach perfusion, 90 minutes) it was 15.3 ± 60.1%; in the series on mice [2] (2 mg/kg stomach perfusion, 120 minutes), −13.0 ± 33.1%; in the series on mice [2] (4 mg/kg stomach perfusion, 15 minutes), 142.7 ± 139.4 %; with mice [2] (4 mg/kg stomach perfusion, 30 minutes) it was 104.1 ± 137.4 %. In addition, the “Increasing rate … ( X ± SD)” value was 81.7 ± 100.0 % in the series on mice [2] (4 mg/kg stomach perfusion, 60 minutes); 34.4 ± 59.3 % in the series with mice [2] (4 mg/kg stomach perfusion, 90 minutes); 59.1 ± 55.6 % with mice [2] (4 mg/kg stomach perfusion, 120 minutes). The “dose with no mice dead” value with mice [4] is recorded as 8.19 mg/kg. Also, the LD50 in series [6] (8.19 mg/kg, 95% of the confidence interval of LD50) is 10.9 to 15 mg/kg; in series [6] (8.19 mg/kg, LD50, previous acute toxicology) it was 12.8 mg/kg; in series [6] (LD50), 12.8 mg/kg.

Turning to `COC[C@]12CN(C)[C@H]3C4C(OC)C1C3(C(OC)CC2O)C1C[C@@]2(O)C(OC(=O)c3ccccc3)C1[C@]4(OC(C)=O)[C@@H](O)C2OC` (stereo partly shown) [Mesaconitine, mesaconitine], the Pain suppression rate with Kunming breed mice [7] worked out at 62.6%; in the series on Kunming breed mice [1] (setting [16]), 14.50%; with Kunming breed mice [1] (setting [12]), 49.11%; with Kunming breed mice [1] (setting [13]), 44.53%; in the series with Kunming breed mice [1] (setting [14]) it was 50.89%. Besides, the “Body twisting number ( χ ± SD)” value is reported as 33.6 ± 11.5 in the series with Kunming breed mice [1] (setting [16]), 20.0 ± 9.6^ΔΔ with Kunming breed mice [1] (setting [12]), 21.8 ± 12.6^ΔΔ in the series on Kunming breed mice [1] (setting [13]) and 19.3 ± 10.0^ΔΔ in the series with Kunming breed mice [1] (setting [14]). The “Increasing rate … ( X ± SD)” value in the series with mice [2] (12.5 mg/kg stomach perfusion, 15 minutes) was 12.1 ± 45.0%; in the series on mice [2] (12.5 mg/kg stomach perfusion, 30 minutes) it was −6.3 ± 31.4%; with mice [2] (12.5 mg/kg stomach perfusion, 60 minutes) it was −0.5 ± 38.7%; with mice [2] (12.5 mg/kg stomach perfusion, 90 minutes), −11.3 ± 34.2%; in the series with mice [2] (12.5 mg/kg stomach perfusion, 120 minutes), 11.1 ± 38.8%; in the series with mice [2] (25 mg/kg stomach perfusion, 15 minutes) it was 39.7 ± 76.6%. The “Increasing rate … ( X ± SD)” value with mice [2] (25 mg/kg stomach perfusion, 30 minutes) is listed as 59.2 ± 146.9%; in the series on mice [2] (25 mg/kg stomach perfusion, 60 minutes), 37.2 ± 88.5%; with mice [2] (25 mg/kg stomach perfusion, 90 minutes) it was 61.3 ± 82.1^Δ %; with mice [2] (25 mg/kg stomach perfusion, 120 minutes) it was 80.7 ± 100.1%; with mice [2] (50 mg/kg stomach perfusion, 15 minutes), 21.4 ± 42.9%; with mice [2] (50 mg/kg stomach perfusion, 30 minutes) it was 14.4 ± 34.7%. Moreover, the “Increasing rate … ( X ± SD)” value in the series on mice [2] (50 mg/kg stomach perfusion, 60 minutes) was 7.9 ± 37.8%; in the series with mice [2] (50 mg/kg stomach perfusion, 90 minutes) it was 30.4 ± 44.1^Δ %; in the series with mice [2] (50 mg/kg stomach perfusion, 120 minutes), 36.0 ± 42.6%; in the series on mice [2] (mesaconitine 100 mg/kg stomach perfusion, 15 minutes), 124.8 ± 165.4%; with mice [2] (mesaconitine 100 mg/kg stomach perfusion, 30 minutes) it was 97.7 ± 184.6%; in the series with mice [2] (mesaconitine 100 mg/kg stomach perfusion, 60 minutes), 64.3 ± 149.5%. The “Increasing rate … ( X ± SD)” value with mice [2] (mesaconitine 100 mg/kg stomach perfusion, 90 minutes) is 108.3 ± 105.0^ΔΔ %; in the series with mice [2] (mesaconitine 100 mg/kg stomach perfusion, 120 minutes), 49.0 ± 52.9%. This compound also returned an LD50 in series [6] (LD50) of 6.41 mg/kg.

In the case of `CCOC(=O)C1(c2ccccc2)CCN(C)CC1` [Pethidine hydrochloride, pethidine hydrochloride, reference compound], the “Body twisting number ( χ ± SD)” value with Kunming breed mice [1] (mouse, in vivo, 40 mg/kg) came to 0 ± 0. Besides, in the series with Kunming breed mice [1] (mouse, in vivo, 40 mg/kg, hydrochloride), the Pain suppression rate worked out at 100%.
